Several values for one entry are separate records, joined by “and”; a condition that tells them apart may be missing. Identical values can stand only once.
Columns and labels:
[1] = tested on: C. autoethanogenum; experiment: Balch tube batch growth of homoacetogen C. autoethanogenum on fructose, optical density; format: cell-based; conditions: added 21 h after inoculation
[2] = tested on: Clostridium tyrobutyricum; experiment: Balch tube batch growth of strict butyrogen Clostridium tyrobutyricum on fructose, optical density; format: cell-based; conditions: added 21 h after inoculation
[3] = tested on: C. autoethanogenum; experiment: Toxicity to C. autoethanogenum by batch fermentation using syngas substrate, optical density; format: cell-based, Clostridium autoethanogenum; conditions: for O.D. Response of Various Inhibitors on C. autoethanogenum: Table 21, one value per compound; for O.D. Response to Various Inhibitors: duplicates A and B, amount not given
Method: In this example various crotonate-like compounds on are evaluated for toxicity to C. autoethanogenum by batch fermentation using syngas substrate. The batch fermentations are conducted by anoxically filling 100 mL serum bottles with 10 mL of media having the composition given in Tables 12 and 13. Duplicate runs are conducted for each concentration. The compounds are: • C-1 Ethyl 4,4,4-trifluoro-3-(trifluoromethyl)crotonate • C-4 4,4,4-Trifluorocrotonamide • C-9 Ethyl 4,4,4-Trifluoro-3-(amino)crotonate • C-18 3 trifluoromethyl-4-methoxybenzoate.
Each bottle is inoculated with 1.0 mL of seed culture inoculum from an active fermenter using syngas substrate and containing Clostridium autoethanogenum, which inoculum has an OD of about 4.92 (which upon a 10 times dilution provides a starting OD for the fermentation of about 0.49). The bottles are gased with syngas to about 100 kilopascals and maintained at a temperature of 37° C. The bottles are regassed with syngas every 8 to 12 hours. The syngas has the approximate composition set forth in Examples 6 to 10. Twenty four hours after inoculation of the bottles with the bacteria, the compounds are added to different bottles as a solution in 50 μL of N-methylpyrrolidone in the amounts indicated in Tables 20 and 21. The fermentation process is allowed to progress at 37° C. At selected intervals of time, bacterial growth is measured by reading the OD of the fermentation liquid using a Thermo Spectronic Genesys 20 spectrophotometer. Optical density is measured by anoxically removing an aliquot of fermentation liquid and adding it to a disposable cuvette. OD's ranging between 0.01 and 0.4 are measured using fermentation liquid directly, while OD's greater than 0.4 are measure after performing a 1/10 dilution with water.

[4] = 0 Hours, added 24 h after inoculation
[5] = 2.5 Hours, added 24 h after inoculation
[6] = 6.5 Hours, added 24 h after inoculation
[7] = 24.5 Hours, added 24 h after inoculation

Row | Structure (SMILES) | Optical density valuation of C. autoethanogenum ([1]; 1 ppm(m)) | Optical density valuation of C. autoethanogenum ([1]; 5 ppm(m)) | Optical density valuation of C. autoethanogenum ([1]; 10 ppm(m)) | Optical density valuation of C. autoethanogenum ([1]; 50 ppm(m)) | Optical density valuation of C. autoethanogenum ([1]; 100 ppm(m)) | Optical density valuation of C. autoethanogenum ([1]; 500 ppm(m)) | Optical density valuation of C. autoethanogenum ([1]; 1000 ppm(m)) | Optical density valuation of C. autoethanogenum ([1]; 5000 ppm(m)) | Optical density valuation of C. autoethanogenum ([1]; 10000 ppm(m)) | Optical density valuation of C. tyrobutyricum ([2]; 100 ppm(m)) | Optical density valuation of C. tyrobutyricum ([2]; 500 ppm(m)) | Optical density valuation of C. tyrobutyricum ([2]; 1000 ppm(m)) | O.D. Response of Various Inhibitors on C. autoethanogenum [3, 4] | O.D. Response of Various Inhibitors on C. autoethanogenum [3, 5] | O.D. Response of Various Inhibitors on C. autoethanogenum [3, 6] | O.D. Response of Various Inhibitors on C. autoethanogenum [3, 7] | O.D. Response of Various Inhibitors on C. autoethanogenum ([3]; 30.5 Hours) | O.D. Response of Various Inhibitors on C. autoethanogenum ([3]; 47.5 Hours) | O.D. Response of Various Inhibitors on C. autoethanogenum ([3]; 56 Hours) | O.D. Response to Various Inhibitors [3, 4] | other results
1 | CCOC(=O)/C=C(\N)C(F)(F)F [B, ethyl-3-amino-4,4,4-trifluorocrotonate] | + (bacterial growth to an OD of approximately 2 or above) | + (bacterial growth to an OD of approximately 2 or above) | + (bacterial growth to an OD of approximately 2 or above) | + (bacterial growth to an OD of approximately 2 or above) | + (bacterial growth to an OD of approximately 2 or above) | + (bacterial growth to an OD of approximately 2 or above) | + (bacterial growth to an OD of approximately 2 or above) | +/− (to an optical density in a range of 0.5 to 1.5) | − (failure of bacterial growth to reach an optical density of approximately 0.5) | + (bacterial growth to an OD of approximately 1.8 or above) | + (bacterial growth to an OD of approximately 1.8 or above) | + (bacterial growth to an OD of approximately 1.8 or above) | 0.49 | 0.41 | 0.44 | 1.06 | 1.38 | 1.90 | 1.98 | 0.49 | O.D. Response to Various Inhibitors ([3]; 2.5 Hours, added 24 h after inoculation, listed as C-9): 0.40 and 0.42; O.D. Response to Various Inhibitors ([3]; 6.5 Hours, added 24 h after inoculation, listed as C-9): 0.42 and 0.46; O.D. Response to Various Inhibitors ([3]; 24.5 Hours, added 24 h after inoculation, listed as C-9): 1.14 and 0.97; O.D. Response to Various Inhibitors ([3]; 30.5 Hours, added 24 h after inoculation, listed as C-9): 1.28 and 1.47; O.D. Response to Various Inhibitors ([3]; 47.5 Hours, added 24 h after inoculation, listed as C-9): 1.67 and 2.12
2 | CCOC(=O)C=C(C(F)(F)F)C(F)(F)F [Compound A, ethyl 4,4,4-trifluoro-3-(trifluoromethyl)crotonate] | + (bacterial growth to an OD of approximately 2 or above) | + (bacterial growth to an OD of approximately 2 or above) | + (bacterial growth to an OD of approximately 2 or above) | + (bacterial growth to an OD of approximately 2 or above) | + (bacterial growth to an OD of approximately 2 or above) | + (bacterial growth to an OD of approximately 2 or above) | + (bacterial growth to an OD of approximately 2 or above) | − (failure of bacterial growth to reach an optical density of approximately 0.5) | − (failure of bacterial growth to reach an optical density of approximately 0.5) | + (bacterial growth to an OD of approximately 1.8 or above) | +/− (to an optical density in a range of 0.7 to 1.5) | − (failure of bacterial growth to reach an optical density of approximately 0.7) | 0.49 | 0.44 | 0.44 | 1.12 | 1.18 | 0.66 | 0.58 | 0.49 | O.D. Response to Various Inhibitors ([3]; 2.5 Hours, added 24 h after inoculation, listed as C-1): 0.42 and 0.46; O.D. Response to Various Inhibitors ([3]; 6.5 Hours, added 24 h after inoculation, listed as C-1): 0.42 and 0.46; O.D. Response to Various Inhibitors ([3]; 24.5 Hours, added 24 h after inoculation, listed as C-1): 1.17 and 1.08; O.D. Response to Various Inhibitors ([3]; 30.5 Hours, added 24 h after inoculation, listed as C-1): 1.15 and 1.22; O.D. Response to Various Inhibitors ([3]; 47.5 Hours, added 24 h after inoculation, listed as C-1): 0.66 and 0.67
3 | O=C(O)C=C(C(F)(F)F)C(F)(F)F [D, 4,4,4-trifluoro-3-(trifluoromethyl)crotonic acid] |  |  | + (bacterial growth to an OD of approximately 2 or above) |  | + (bacterial growth to an OD of approximately 2 or above) | + (bacterial growth to an OD of approximately 2 or above) | +/− (to an optical density in a range of 0.5 to 1.5) | − (failure of bacterial growth to reach an optical density of approximately 0.5) | − (failure of bacterial growth to reach an optical density of approximately 0.5) | + (bacterial growth to an OD of approximately 1.8 or above) | + (bacterial growth to an OD of approximately 1.8 or above) | + (bacterial growth to an OD of approximately 1.8 or above) |  |  |  |  |  |  |  |  | 
